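Protocol summary: plate cells (96-well), add compound at 5 concentrations, incubate 48 h, interpolate endpoints linearly. GI50: concentration for 50% inhibition of growth.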 Activity calls are given as the source filed them. Cut-off read from the data, not from the text of the source: active = GI50 up to about 1.1 µM and inactive = higher.

The record followed here is ChEMBL document CHEMBL1201862, “PubChem BioAssay data set” (2004).

Common to all, as to test: DTP human tumour cell line panel, 48 h
Assay [1] relates to MDA-MB-231.
Assay [2] concerns PC-3.
The subject of assay [3] is T47D.
Assay [4] concerns HCT-15.
For assay [5], the system named is SF-539.
In assay [6] the test system is SW-620.
Assay [7] has as its system KM12.
Assay [8] deals with OVCAR-4.
Assay [9] deals with U-251.
Assay [10] has as its system OVCAR-5.
For assay [11], the system named is ACHN.
Assay [12] has as its system UACC-257.
Assay [13] has as its system SK-OV-3.
Assay [14] concerns HCT-116.
Assay [15] deals with NCI/ADR-RES.
For assay [16], the system named is SF-295.
Assay [17] relates to SNB-19.
Assay [18] relates to NCI-H23.
In assay [19] the test system is HL-60.

The GI50 is the concentration giving 50% growth inhibition. In the case of `O=[N+]([O-])/C=C/COCc1cc2c(cc1Br)OCO2`, the GI50 is 18.9 µM (inactive) in [1]; 13 µM (inactive) in assay [2]; 16.7 µM (inactive) in assay [3]; 18 µM in assay [4]; 27.9 µM (inactive) in assay [5]; 16 µM (inactive) in [6]. Further, the GI50 in [7] was 19 µM (inactive); in [8], 18.6 µM (inactive); in assay [9], 17 µM (inactive); in [10], 16.7 µM (inactive); in assay [11] it was 16.4 µM (inactive); in assay [12] it was 17.3 µM (inactive). The GI50 in assay [13] was 43.1 µM (inactive); in assay [14], 17.6 µM (inactive); in assay [15], 21.1 µM (inactive); in [16] it was 36.8 µM (inactive).

With `C=CCC(C)C12CCNC(Cc3ccc(O)cc31)C2C` (stereo not drawn), the GI50 in assay [1] is > 100 µM (inactive); in assay [3], > 100 µM (inactive); in [4], > 100 µM; in assay [5], > 100 µM (inactive); in assay [17] it was > 100 µM (inactive); in [6], > 100 µM (inactive). The GI50 in [7], in [8], in assay [9], in assay [10], in [18] and in assay [11] was > 100 µM (inactive) each time. Also, the GI50 is 66.2 µM (inactive) in [12]; > 100 µM (inactive) in [13]; > 100 µM (inactive) in [14]; > 100 µM (inactive) in [15]; > 100 µM (inactive) in assay [16]; > 10 µM (inactive) in [19].

Turning to `O=C1C2=C(N[C@@H](c3ccccc3)[C@H](c3ccccc3)N2)C(=O)c2ccccc21`, the GI50 is > 100 µM in assay [4]; > 100 µM (inactive) in [5]; > 100 µM (inactive) in assay [17]; > 100 µM (inactive) in assay [6]; > 100 µM (inactive) in assay [7]; > 100 µM (inactive) in assay [8]. Moreover, the GI50 in assay [9], in assay [10], in assay [18], in assay [11], in assay [12] and in assay [13] was > 100 µM (inactive) in each case. For the same compound, the GI50 in [14], in assay [16] and in assay [19] was > 100 µM (inactive) throughout.

`N#CC1=C(N)OC(c2cccc([N+](=O)[O-])c2)C1(C#N)C#N` (stereo not drawn): the GI50 is > 10 µM (inactive) in [1]; 23.7 µM (inactive) in assay [2]; 17.4 µM (inactive) in [3]; 18.7 µM in assay [4]; 21.8 µM (inactive) in [5]; 21.8 µM (inactive) in assay [17]. Also, the GI50 in assay [6] was > 10 µM (inactive); in assay [7], > 10 µM (inactive); in assay [9], 39.9 µM (inactive); in assay [10], 20.6 µM (inactive); in [18], 21.2 µM (inactive); in assay [11], 18.2 µM (inactive). Further, the GI50 in assay [12] was 17 µM (inactive); in [13], 70.3 µM (inactive); in [14] it was 15.2 µM (inactive); in [15] it was 34.3 µM (inactive); in [16] it was 26.5 µM (inactive); in [19], 11.9 µM (inactive).

Turning to `NC(=S)N/N=C(/CCN1CCCC1)CC(C1=C(O)C2=CCCCC2OC1=O)c1ccccc1` (stereo not drawn), the 50% growth inhibitory concentration (GI50) in [4] is > 100 µM; in assay [5], > 100 µM (inactive); in [17] it was > 100 µM (inactive); in assay [6], 37.8 µM (inactive); in [7], > 100 µM (inactive); in [8], > 100 µM (inactive). For the same compound, the GI50 in assay [9], in assay [10], in assay [18], in assay [11], in [12] and in assay [13] was > 100 µM (inactive) throughout. Further, the GI50 in [14], in assay [16] and in assay [19] was > 100 µM (inactive) in each case.

In the case of `O=C1/C(=C/c2ccco2)N=C2Sc3c([nH]cnc3=O)N12`, the GI50 in assay [1] was > 100 µM (inactive); in [2], > 100 µM (inactive); in [3] it was > 100 µM (inactive); in assay [4], > 100 µM; in [5] it was > 100 µM (inactive); in assay [17], > 100 µM (inactive). In addition, the GI50 was > 100 µM (inactive) in [6]; > 100 µM (inactive) in [7]; 44.4 µM (inactive) in assay [8]; > 100 µM (inactive) in assay [9]; > 100 µM (inactive) in [10]; > 100 µM (inactive) in [18]. Moreover, the GI50 in assay [11], in assay [12], in [13], in assay [14], in assay [15] and in [16] was > 100 µM (inactive) in each case. Besides, the GI50 in [19] is > 100 µM (inactive).

Turning to `Nc1c(-c2nc3ccccc3[nH]2)sc(=S)n1-c1ccccc1`, the GI50 in [4] is > 100 µM; in assay [5], > 100 µM (inactive); in assay [17], > 100 µM (inactive); in assay [6] it was > 100 µM (inactive); in [7], > 100 µM (inactive); in assay [8] it was > 100 µM (inactive). Also, the GI50 was 76.7 µM (inactive) in assay [9]; > 100 µM (inactive) in assay [10]; > 100 µM (inactive) in assay [18]; 18.4 µM (inactive) in assay [11]; > 100 µM (inactive) in [12]; > 100 µM (inactive) in assay [13]. The GI50 in [14] was > 100 µM (inactive); in assay [16], 72.8 µM (inactive); in assay [19], > 100 µM (inactive).

On to `CC(=O)/N=C1/N(/C=C2\C(=O)Oc3ccccc3C2=O)C(=O)/C(=C/c2ccccc2Cl)N1C`, for which the GI50 in assay [1] is > 100 µM (inactive); in [2], > 100 µM (inactive); in assay [3], > 100 µM (inactive); in [4], 52.6 µM; in assay [5] it was > 100 µM (inactive); in [17], 95.3 µM (inactive). For the same compound, the GI50 in [6], in assay [7], in [8], in [9], in assay [10] and in assay [18] was > 100 µM (inactive) throughout. For the same compound, the GI50 in assay [11] was > 100 µM (inactive); in [12], > 100 µM (inactive); in assay [13], > 100 µM (inactive); in assay [14], > 100 µM (inactive); in assay [15] it was 84.9 µM (inactive); in assay [16] it was > 100 µM (inactive). For the same compound, the GI50 in assay [19] was > 100 µM (inactive).

For the compound `CN(C)/C=N\c1c(Br)cc(Br)c2nonc12`, the GI50 in assay [1] is > 100 µM (inactive); in [2] it was > 100 µM (inactive); in assay [3], > 100 µM (inactive); in [4] it was > 100 µM; in assay [5], > 100 µM (inactive); in [17] it was > 100 µM (inactive). Besides, the GI50 in assay [6], in assay [7], in [8], in assay [10], in assay [18] and in assay [11] was > 100 µM (inactive) throughout. For the same compound, the GI50 in assay [12], in [13], in assay [14], in assay [15], in assay [16] and in assay [19] was > 100 µM (inactive) each time.

In the case of `C1CCC(CC2CCC(NC3=NCCO3)CC2)CC1` (stereo not drawn), the GI50 was 19.4 µM (inactive) in assay [1]; 15.8 µM (inactive) in assay [2]; 24.4 µM (inactive) in assay [3]; 12.3 µM in assay [4]; 16.8 µM (inactive) in assay [5]; 17.3 µM (inactive) in assay [17]. Further, the GI50 is 21.3 µM (inactive) in assay [6]; 18.3 µM (inactive) in assay [7]; 20.2 µM (inactive) in assay [8]; 18 µM (inactive) in assay [9]; 23.6 µM (inactive) in [10]; 17.9 µM (inactive) in assay [18]. For the same compound, the GI50 in assay [11] is 19.5 µM (inactive); in [12] it was 16.4 µM (inactive); in assay [13], 20.9 µM (inactive); in assay [14], 15.5 µM (inactive); in assay [15] it was 19.4 µM (inactive); in assay [16], 19.7 µM (inactive). The GI50 in assay [19] is 17.9 µM (inactive).

In the case of `CNC(=O)OCc1nc([S+](C)[O-])n(C)c1COC(=O)NC` (stereo not drawn), the GI50 in assay [4] is > 100 µM; in assay [5], > 100 µM (inactive); in assay [17], > 100 µM (inactive); in assay [6] it was > 46.5 µM (inactive); in assay [7], > 100 µM (inactive); in [8] it was > 51.9 µM (inactive). The GI50 in [9] is > 100 µM (inactive); in [10], > 100 µM (inactive); in assay [18], > 100 µM (inactive); in assay [11], > 24.2 µM (inactive); in assay [12], > 100 µM (inactive); in [13] it was > 44.1 µM (inactive). Also, the GI50 in assay [14], in [15], in assay [16] and in assay [19] was > 100 µM (inactive) throughout.

Consider `CCc1ccccc1NC(=O)c1cccc([N+](=O)[O-])c1O`, for which the GI50 in assay [4] was 25.8 µM; in assay [5], > 100 µM (inactive); in assay [17], 41.7 µM (inactive); in assay [6], 38.4 µM (inactive); in assay [7] it was 18.1 µM (inactive); in assay [8], 16.7 µM (inactive). Moreover, the GI50 in [9] was 23 µM (inactive); in assay [10], 17.9 µM (inactive); in assay [18] it was 18.7 µM (inactive); in assay [11], 18.1 µM (inactive); in assay [12], 19.9 µM (inactive); in assay [13], 25 µM (inactive). Moreover, the GI50 in [14] was 24.2 µM (inactive); in assay [16], 5.18 µM (inactive); in assay [19] it was 30.6 µM (inactive).
